Reference: patent US20150018271A1, “HSP60 DERIVED PEPTIDES AND PEPTIDE ANALOGS FOR SUPPRESSION AND TREATMENT OF NON-AUTOIMMUNE DIABETES” (Yeda Research and Development Co. Ltd., priority 2012, published 2015)
Ends that are not written are not given here.

Experiments:
NOD mice = conditions: cited from earlier work
[1] = tested on: male C57BL/N mice on high fat (60%) diet; conditions: any of the DiaPep277 treatments (100-500 μg in intralipid SC or 100 μg in PBS IP), about 16 weeks, FIG. 1
From the text: Mice genetically prone to T2D (dp/dp or ob/ob strains, resistant to leptin), and/or healthy C57BL/6 mice induced to develop T2D by a high fat diet are used in vivo to assess the activity of hsp60 peptides and analogs in protecting against or treatment of T2D. […] In the fat diet model, the diet (for example TD.0811 of Harlan™, or D12492 of Research Diets Inc. containing 21% and 34.9% fat respectively) is initiated after weaning and the mice express T2D by 10 weeks of age.
In a typical trial, groups of T2D mice (10 mice per group) are treated early in the course of the disease (about 7-10 weeks of age). […]
Treatment with DiaPep277 or other hsp60 peptides or analogs, is performed once or several times a week with doses of 100-500 micrograms injected subcutaneously (with adjuvant such as intralipid) or IP, IM or IV (without adjuvant). Glucose tolerance, fasting glucose and fasting insulin levels are measured 1-2 months after onset of treatment.
In one specific in-vivo trial, 70 male C57BL/N mice were weighed, measured for blood glucose levels and divided into seven groups, 10 mice/group as following: […]
Animals of groups 2-7 were fed with 60% fat diet of from age of 5 weeks until termination of the trial. […] After about 16 weeks the trial was terminated and Hemoglobin A1C and C-peptide levels were measured using methods known in the art.

p277: specific peptide of human hsp60, one of the immunodominant epitopes in autoimmune diabetes; native cysteines at positions 6 and 11 (VLGGGCALLRCIPALDSLTPANED; p277 peptide; UniProt P10809 437-460, looked up, fragment)
gamma interferon secretion (NOD mice; after treatment): decrease
p277-specific IL-4 and IL-10 secretion (NOD mice; after treatment): increase
p277-specific IgG1 antibodies (NOD mice; after treatment): induced
T-cell reactivity to beta cell antigens (NOD mice; subcutaneous administration): down-regulated
development of diabetes (NOD mice; subcutaneous administration): prevented the development of diabetes

VLGGGVALLRVIPALDSLTPANED [DiaPep277]
animal appetite and weight [1]: did not change
